Reference: article PMC5538626, “Structural and functional analysis of the GABARAP interaction motif (GIM)” (EMBO Reports, 2017)
Entries after “also recorded” stand apart in the source; their conditions may differ. Ends that are not written are not given here.

Tests used:
[1] = tested on: 6xHis-tagged LC3B and 6xHis-tagged GABARAP; test: Peptide array, preference GABARAP versus LC3B (absorbance ratio); assay type: binding, human; conditions: absorbance GABARAP/LC3B or LC3B/GABARAP, cut-off 1.5-fold; mean of n = 3; Figs 1A, EV1B and C
Excerpt: A high number of autophagy receptors or adaptor structures have been reported, yet the basis for their selective interaction with individual members of the ATG8 family is not well understood. We speculated whether the LIR motif alone is able to confer selectivity towards a mATG8 subfamily and whether we could derive a subfamily consensus motif from analysis of known mATG8 interaction partners. To address this question, we screened an array of peptides (presented in Fig EV1A and described in Materials and Methods) with the LIR sequences of 30 known and validated autophagy receptors and adaptors (Table 1) against all six human mATG8s for binding (Figs 1A and EV1B and C). In brief, biotinylated peptides were immobilized on streptavidin‐coated 96‐well plates and incubated with His6‐tagged mATG8 proteins. After washing steps, peptide‐bound mATG8 was detected in an ELISA reader using anti‐His antibodies directly conjugated to HRP (horse radish peroxidase; Fig EV1A).
Dashed red line depicts 1.5‐fold change cut‐off.
Due to the wide range of affinities of various LIR sequences towards the LC3/GABARAP proteins, we have normalized our results by dividing values for LC3B interaction by the corresponding value for interaction with GABARAP (Fig 1A, purple bars) and vice versa (Fig 1A, blue bars) to highlight the potential subfamily selectivity of each LIR sequence tested. We classified ratios greater than 1.5‐fold as an indication of a preferential interaction towards that particular LC3 or GABARAP family member. […] Using this information, we generated a sequence plot (Fig 1B) to ascertain whether there were any common sequence features of the GABARAP‐specific interaction proteins. In addition to the 12 sequences identified in this experiment as preferential GABARAP subfamily interactors, we also included known GABARAP interactors that were not included in our screen (ALFY and KBTBD7). […] The previously identified PLEKHM1‐LIR 19 has a high degree of similarity to this sequence. […] However, it is unclear whether this is the case in vivo.
Biotinylated peptides (JPT, Germany) were immobilized on streptavidin‐coated 96‐well plates (#436014; Thermo Scientific) in 100 μl PBS containing 0.1% Tween‐20 (PT) and 1% BSA (PTB) overnight on a shaker at 8°C. After three washing steps with 200 μl PT, 100 μl of 1 μM HIS6‐tagged mATG fusion proteins isolated from E. coli in PTB was incubated with the immobilized peptides for 1 h at 8°C. After three washing steps with 200 μl PT, HIS6‐ATG8 bound to peptides was detected after 1‐h incubation with anti‐HIS‐HRP antibody (JP‐A00612; Genscript; 1:5,000 in 100 μl PTB) with the help of TMB substrate Reagent Set (BD OptEIA; 75 μl). The reaction (blue coloration) was stopped by addition of 60 μl 1 M H3PO4. Samples were analysed on a Synergy H1 ELISA reader from BioTek at 450 nm.

LC3B = conditions: p62 LIR with LC3B; no method, no reference given; cited from earlier work
Excerpt: Finally, we wanted to apply and subsequently verify our findings by targeted mutation of established autophagy players: p62, FUNDC1 and FIP200. Due to their impact, we specifically substituted existing residues at positions X1 and Γ of LIRs either singly or in combination to valine, thus driving the LIR sequences towards our GIM consensus sequence (Fig 1).

all six mATG8 proteins = test: Peptide array (ELISA), all six mATG8s; conditions: 450 nm, Fig 3E, n = 4
all LC3s = conditions: GST pull-down; cited from earlier work
Excerpt: Due to the wide range of affinities of various LIR sequences towards the LC3/GABARAP proteins, we have normalized our results by dividing values for LC3B interaction by the corresponding value for interaction with GABARAP (Fig 1A, purple bars) and vice versa (Fig 1A, blue bars) to highlight the potential subfamily selectivity of each LIR sequence tested. We classified ratios greater than 1.5‐fold as an indication of a preferential interaction towards that particular LC3 or GABARAP family member.

LC3 and GABARAP families = conditions: cited from earlier work
Excerpt: However, despite the ever‐increasing number of LC3/GABARAP interaction partners identified and perhaps the over‐reliance on LC3B as the main marker of autophagosomes, there is now emerging distinct roles of each LC3 and GABARAP subfamily. For example, both LC3 and GABARAP families are essential for autophagy flux 29; however, LC3s were reported to be involved in phagophore extension and GABARAPs required for autophagosome closure 29. Moreover, GABARAP can activate ULK1 complex to initiate autophagy, irrespective of its conjugation status 28. Indeed, this is also reflected in C. elegans homolog ...

endogenous GABARAP [2] = test: Co-immunoprecipitation of 3xFlag-FIP200 with endogenous GABARAP, HEK293 cells; assay type: cell-based; conditions: HEK293, anti-Flag beads, Western blot; Fig 5B
Method: Blots were probed for the presence of endogenous GABARAP and LC3B proteins. • 3xFlag‐FIP200 WT, E703V, I705V, E703V/I705V and F702A/I705A were overexpressed in HEK293 cells and immunoprecipitated using anti‐Flag beads and subjected to SDS–PAGE and Western blotting. Blots were probed for the presence of endogenous GABARAP and LC3B proteins. • GFP‐FUNDC1 WT, E19V, L21V, E19V/L21V and Y18A/L21A were overexpressed in HEK293 cells and either treated with vehicle only (DMSO) or 20 μM CCCP for 2 h, lysed and GFP‐FUNDC1 immunoprecipitated using anti‐GFP beads (or anti‐RFP beads as control) and subjected to SDS–PAGE and Western blotting. Blots were probed for the presence of endogenous GABARAP and LC3B proteins.

endogenous GABARAP [3] = test: Co-immunoprecipitation of GFP-mCherry-p62/SQSTM1 with endogenous GABARAP, HEK293 cells; assay type: cell-based; conditions: HEK293, basal conditions, anti-RFP beads, Western blot; Fig 5A
endogenous LC3B = test: Co-immunoprecipitation of GFP-mCherry-p62/SQSTM1 with endogenous LC3B, HEK293 cells; assay type: cell-based; conditions: HEK293, basal conditions, anti-RFP beads, Western blot; Fig 5A
6xHis-tagged LC3B = test: Peptide array (ELISA), LC3B; conditions: fold change over WT, n = 3, Fig EV5A
6xHis-tagged LC3A = test: Peptide array (ELISA), LC3A; conditions: fold change over WT, mean ± SEM n = 3, Fig EV5A
6xHis-tagged LC3C = test: Peptide array (ELISA), LC3C; conditions: fold change over WT, n = 3, Fig EV5A
[4] = tested on: GABARAP family (GABARAP, GABARAP-L1, GABARAP-L2); test: Peptide array (ELISA), GABARAP family; conditions: fold change over WT, n = 3, Fig EV5A
GFP-LC3/GABARAPs = test: Co-immunoprecipitation of endogenous proteins with GFP-mATG8s in HeLa cells; conditions: 4 h KU-0063794 (10 μM) + chloroquine (20 μM), Fig 2C

In the case of “DDDWTHLSS [p62/SQSTM1, LIR peptide 335–343, peptide array]”, the “preference GABARAP versus LC3B” value [1] is listed as “slight preference for GABARAP” and the Kd (LC3B) is listed as roughly 1.5 µM.

With “EDEAVNAQY [W635A/V638A, reference compound]” the “interaction with all mATG8s, alanine scan” value (all six mATG8 proteins) was “completely disrupted all LIR–mATG8 interactions”.

In the case of EDEWVNVQY [PLEKHM1], the “preference GABARAP versus LC3B” value [1] is given as “clear preference for binding to GABARAP and GABARAP‐L2 over LC3B and LC3C; also recorded: strong preference for GABARAP versus LC3”, the “interaction with LC3s” value (all LC3s) is given as “can interact with all LC3s” and the “ranking of mATG8 binding” value (all six mATG8 proteins) is given as “shows the most potent interaction, followed by GABARAP‐L1, ‐L2, LC3C and LC3A, with LC3B as the weakest interactor”.

For EDSFVEIRM [OPTN, LIR peptide 175–183], the “subfamily preference after phosphorylation” value (LC3 and GABARAP families; TBK1 phosphorylation at S177) is listed as “switches to LC3B” and the subfamily preference (LC3 and GABARAP families; unmodified state) is listed as “clearly shows preference for GABARAP”.

For FVTV: 3xFlag-FIP200 E703V/I705V, the “interaction of FIP200 with endogenous GABARAP” value (endogenous GABARAP [2]) was “enhance the interaction between FIP200 (LIR sequence FDFETIPH) and GABARAP”.

For L341V: GFP-mCherry-p62/SQSTM1 L341V, the “interaction of p62/SQSTM1 with endogenous GABARAP” value (endogenous GABARAP [3]) was “mild effect; also recorded: little effect on LC3/GABARAP‐specific interaction” and the “interaction of p62/SQSTM1 with endogenous LC3B” value (endogenous LC3B) was “little effect on LC3/GABARAP‐specific interaction”.

In the case of SEDYIIILP [NBR1, LIR peptide 729–737], the subfamily specificity (LC3 and GABARAP families) is given as “GABARAP‐L1‐specific receptor”.

With “V638I: PLEKHM1-LIR array peptide V638I (EDEWVNIQY; also: biotin, position not given here)” the “interaction with LC3B, Θ and Γ mutants” value (6xHis-tagged LC3B) was “increase the affinity”, the “interaction with LC3A, Θ and Γ mutants” value (6xHis-tagged LC3A) was “did not affect” and the “interaction with LC3C, Θ and Γ mutants” value (6xHis-tagged LC3C) was “did not affect”. The “interaction with GABARAP family, Θ and Γ mutants” value [4] was “small decrease in the interaction”.

For “V638L: PLEKHM1-LIR array peptide V638L (EDEWVNLQY; also: biotin, position not given here)”, the “interaction with LC3B, Θ and Γ mutants” value (6xHis-tagged LC3B) was “increase the affinity”, the “interaction with LC3A, Θ and Γ mutants” value (6xHis-tagged LC3A) was “did not affect” and the “interaction with LC3C, Θ and Γ mutants” value (6xHis-tagged LC3C) was “did not affect”. The “interaction with GABARAP family, Θ and Γ mutants” value [4] was “small decrease in the interaction”.

In the case of “endogenous p62/SQSTM1: endogenous p62/SQSTM1 protein in HeLa cells”, the “co-precipitation of endogenous protein with GFP-mATG8s” value (GFP-LC3/GABARAPs) is reported as “co‐precipitated with all LC3/GABARAP to a similar extent”.
